Patent publication US9670217B2, “Process for preparing chlorins and their pharmaceutical uses” (UNIVERSIDADE DE COIMBRA, priority 2008, dated 2017)

Assays:
[1] = system: SKMEL 188 (human melanoma); test: Cell photosensitization, filtered halogen lamp, MTT; assay type: cell-based; conditions: [Luzitin-Cl] = 20 μM
Protocol: Irradiation in in vitro experiments was performed using either a halogen lamp or a laser source. In the first case, a 500 W halogen lamp was placed 50 cm from the irradiated plate to insure a homogeneous irradiation. A cooled water filter (d=35 mm) and a 600 nm cut off filter were placed between the lamp and samples. The fluence rate reaching samples was 3 mW/cm^2. The emission spectrum of the halogen lamp was recorded using a spectroradiometer IL2000 (Spectrocube), FIG. 1. In the second case, three Lynx external cavity diode lasers TEC 500 powered by PilotPC 500 Laser Controllers (Sacher Lasertechnik, Marburg, Germany) were employed. The laser energies were stable at 40 mW for the 748 nm laser, 10 mW for the 649 laser and 10 mW for the 633 laser. The laser energies were regularly measured with a Coherent LaserCheck. In some in vitro experiments, the laser light was focused on an optical fiber through a collimator in microbench, and delivered to the cells. This system reduced the 748 nm laser light to 30 mW.
The cell lines employed in halogen lamp irradiation were the MCF7 (human breast carcinoma), SKMEL 188 (human melanoma) and S91/I3 (mouse melanoma) cells. They were used both for cytotoxicity and photocytotoxicity experiments. MCF7 cells were grown supplemented with 10% fetal calf (FBS) serum, 25 units/ml of penicillin, and 25 μg/ml of streptomycin. Human melanoma cells SKMEL-188 were grown in F10 medium supplemented with 10% fetal calf serum (FCS), 100 units/ml of penicillin, and 100 μg/ml of streptomycin. I3 subline of Cloudman S91 melanoma cells were cultured in RPMI 1640 medium supplemented with 100 units/ml of penicillin, 100 μg/ml streptomycin and 5% fetal calf serum (FCS) (Gibco BRL). […]
Cytotoxicity. Cell metabolic efficiency and viability were determined by the uptake and reduction of 3-(4,5-dimethylthiazol-2-yl)-2,5-diphenyl tetrazolium bromide (MTT) to an insoluble formazan dye by cellular microsomal enzymes. […] The 96-well culture plate was shaken for 0.5 min at room temperature and immediately read for optical density at 560 nm using an ELISA reader (GENios Plus; Tecan Trading AG, Switzerland). The cell survival was expressed by the absorbance changes of the formazan salt, and survival rate was given as the percent ratio of viable treated cells vs. the number of viable untreated cells. Number of cells was determined from linear regression of a calibration curve.
Cell photosensitization. […] The values were obtained from three independent experiments and expressed as percent of cell survival with reference to control cells, which were manipulated in the same manner but without incubation with photosensitizer and without illumination.

[2] = In vivo toxicity in the dark; design: species or system DBA/2 mice; conditions: for sensitivity to light: first 6 days
Source text: The mice used in the present study were form two sources. Dark toxicity, biodistribution and farmacokinetic studies employed DBA/2 mice, weighing 20-30 g, from the animal breeding facility at the Faculty of Biochemistry, Biophysics and Biotechnology, Jagiellonian University, Krakow. The mice were kept on a standard laboratory diet with free access to drinking water. The use of such animals for experimental purposes was approved by the Jagiellonian University Committee for Ethics of Experiments on Animals (decision No. 384/99). Such mice were also employed in PDT.
The mice were divided into the following experimental groups:
The solutions of Luzitin-Cl (0.5 ml) were injected subcutaneously and for 30 days the animals were closely observed. […] They manifested such sensitivity by moving away from light sources directly pointed at them. […] After 30 days the animals were anaesthetized using Morbital (Biowet, Poland), their organs and tissue samples were excised, and blood morphology as well as histology of selected organs tests was performed.

**Q.** For `O=S(=O)(O)c1ccc(Cl)c(-c2c3nc(c(-c4cc(S(=O)(=O)O)ccc4Cl)c4ccc([nH]4)c(-c4cc(S(=O)(=O)O)ccc4Cl)c4nc(c(-c5cc(S(=O)(=O)O)ccc5Cl)c5ccc2[nH]5)CC4)CC3)c1` [Luzitin-Cl, 5,10,15,20-tetrakis(2-chloro-5-sulfonylphenyl)bacteriochlorin], which “LD50 (light dose to kill 50% of the cells)” value [1] is on record?
**A.** Its value is 0.1 J/cm^2.

**Q.** And the “LD90 (light dose to kill 90% of the cells)” value [1]?
**A.** Its value is 0.32 J/cm^2.

**Q.** What about the sensitivity to light ([2]; 15 mg/kg subcutaneous, some animals) of the same molecule?
**A.** The sensitivity to light was “slight sensitivity”.

**Q.** What about the sensitivity to light ([2]; 20 mg/kg subcutaneous) of the same molecule?
**A.** Its sensitivity to light is “revealed sensitivity to the light”.

**Q.** And the body mass changes ([2]; 2-20 mg/kg subcutaneous, 30 days)?
**A.** Its body mass changes is “no significant mass changes were observed”.

**Q.** What about the “blood morphology and histology of selected organs” value ([2]; 2-20 mg/kg subcutaneous, after 30 days) of the same molecule?
**A.** The value was “No changes were observed in the blood or in organs”.
